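Briefly, cells in 96-well plates were exposed to five compound concentrations for 48 h, and endpoints were estimated by linear interpolation. At the GI50, growth is halved. The concentration for full growth arrest is given as TGI.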
Columns and labels:
Experiment in all cases: growth of human tumour cells (NCI), 48 h
MDA-N = tested on: MDA-N
KM20L2 colon = tested on: KM20L2 colon
RXF-631 renal = tested on: RXF-631 renal
LXFL 529 NSCLC = tested on: LXFL 529 NSCLC
DLD-1 colon = tested on: DLD-1 colon
DMS 114 small cell lung = tested on: DMS 114 small cell lung
DMS 273 small cell lung = tested on: DMS 273 small cell lung

Row | Compound | TGI (MDA-N) | TGI (KM20L2 colon) | TGI (RXF-631 renal) | TGI (LXFL 529 NSCLC) | TGI (DLD-1 colon) | TGI (DMS 114 small cell lung) | TGI (DMS 273 small cell lung) | GI50 (MDA-N)
1 | C=C1C(=O)O[C@H]2[C@H](OC(C)=O)[C@@H](C)CCC/C(C)=C/CC[C@@]3(C)O[C@@H]3C[C@@H]12 | 10.6 µM | – | – | – | – | – | – | –
2 | CN1CC[C@]2(C)c3cc(O)ccc3CC3CCCC1C32C (stereo partly specified) | – | > 100 µM | > 100 µM | > 100 µM | > 100 µM | > 100 µM | – | –
3 | CN(C)CCNC(=O)c1cccc2[nH]c(-c3cccnc3)nc12 | – | – | – | – | 73.1 µM | – | 74.4 µM | –
4 | CC(C)c1c(O)ccc2c1CCC1C(C)(C)CCCC21C (stereo unspecified) | 32.3 µM | – | – | – | – | – | – | –
5 | COC(=O)[C@]12CC=C3O[C@@H]4OC5(CCCCC5)O[C@@H]4C3[C@@H]1C(=O)CCC2=O (stereo partly specified) | – | > 100 µM | > 100 µM | > 100 µM | > 100 µM | > 100 µM | > 100 µM | –
6 | Cc1[nH]c(=O)n2c(C)nnc2c1C(=O)Nc1cc(Cl)cc(Cl)c1 | – | – | – | > 100 µM | > 100 µM | – | – | –
7 | Cc1cc(Cc2cc(C)cc(C(C)(C)C)c2O)c(O)c(Cc2cc(C)cc(C(C)(C)C)c2O)c1 | 11.9 µM | – | – | – | – | – | – | –
8 | CN(C)C=[N+]=[N-] | – | > 100 µM | – | > 100 µM | > 100 µM | > 100 µM | > 100 µM | –
9 | CCCC/C=C1\CCC(C)(CN(C)C)C1=O (stereo unspecified) | – | > 100 µM | – | > 100 µM | – | > 100 µM | – | –
10 | COc1ccccc1C1c2cc3c(cc2OC(O)(CO)C1C(=O)O)OCO3 (stereo unspecified) (tested in a mixture with another compound) | – | > 100 µM | – | > 100 µM | > 100 µM | > 100 µM | > 100 µM | –
11 | O=C1C2C(c3ccccc3)NC(c3ccccc3)C1C(c1ccccc1)NC2c1ccccc1 (stereo unspecified) | > 100 µM | – | – | – | – | – | – | –
12 | C[C@]12CCC(=O)C(O)=C1CC[C@@H]1C2CC[C@]2(C)Nc3c(cnn3-c3ccccc3)CC12 (stereo partly specified) | – | > 100 µM | > 100 µM | > 100 µM | > 100 µM | – | > 100 µM | –
13 | O=C(O)C1C(C(=O)O)C23CC2(C(=O)O)C2(C(=O)O)CCC3=C3CCCC312 (stereo unspecified) | 89.2 µM | – | – | – | – | – | – | –
14 | Cc1ccc([N+](=O)[O-])cc1NC(=O)c1cccc([N+](=O)[O-])c1O | – | > 100 µM | – | 78.1 µM | > 100 µM | 43.2 µM | 76.4 µM | –
15 | C=C1C(=O)OC2C=C(CCC(C)=O)C(C)C(OC(C)=O)CC12 (stereo unspecified) | – | 16.4 µM | – | 1.67 µM | – | – | – | –
16 | O=C1CCCC(=O)N1CCc1c[nH]c2ccccc12 | – | > 100 µM | > 100 µM | > 100 µM | > 100 µM | > 100 µM | > 100 µM | –
17 | COc1cc(C(O)C(=O)c2nc3ccc([N+](=O)[O-])cc3[nH]c2=O)ccc1O (stereo unspecified) | – | > 100 µM | – | > 100 µM | > 100 µM | > 100 µM | > 100 µM | –
18 | CNC(=O)CC1NC(=O)c2csc(n2)-c2ccc(-c3nc(C4=NC(C(=O)N5CCCC5C(N)=O)CO4)cs3)nc2-c2csc(n2)-c2csc(n2)C(C(C)C)NC(=O)CNC(=O)c2csc(n2)C(C(C)C)NC(=O)c2nc1sc2C (stereo unspecified) | – | – | – | – | – | – | – | < 1 nM

Row | Compound | TGI (MDA-N) | TGI (KM20L2 colon) | TGI (RXF-631 renal) | TGI (LXFL 529 NSCLC) | TGI (DLD-1 colon) | TGI (DMS 114 small cell lung) | TGI (DMS 273 small cell lung) | GI50 (MDA-N)
19 | COc1ccc(CC(=O)NCCc2ccc(OC)c(OC)c2)cc1Br | – | > 100 µM | – | > 100 µM | > 100 µM | > 100 µM | > 100 µM | –
20 | COc1ccc(C(=O)/C=C/c2ccc3c(c2)OCO3)c(OCc2ccccc2)c1 | > 100 µM | – | – | – | – | – | – | –
21 | Cc1c(C(=O)CC(=O)C(=O)Nc2ccc(Cl)cc2)[n+](=O)c2ccccc2n1[O-] | – | > 100 µM | – | > 100 µM | > 100 µM | > 100 µM | > 100 µM | –
22 | CCOC(=O)/C(=C\c1ccc(C#N)cc1)C(C)=O | > 100 µM | – | – | – | – | – | – | –
23 | Cc1cc(NS(=O)(=O)c2ccc(NC(=O)c3ccc(Cl)c4c(Nc5ccc(S(=O)(=O)N=C(N)N)cc5)c5ccccc5nc34)cc2)no1 | – | > 100 µM | – | > 100 µM | > 100 µM | > 100 µM | – | –
24 | CN1C(=O)C(CC(=O)O)NC1=S (stereo unspecified) | > 100 µM | – | – | – | – | – | – | –
25 | O=C(O)c1cc(-c2ccncc2)nc2ccccc12 | > 100 µM | – | – | – | – | – | – | –
26 | O=C(NCCCCCCNC(=O)OCCSCCn1cc(C(=O)NC(=O)OCc2ccccc2)c(=O)[nH]c1=O)OCCSCCn1cc(C(=O)NC(=O)OCc2ccccc2)c(=O)[nH]c1=O | – | > 100 µM | > 100 µM | > 100 µM | > 100 µM | > 100 µM | > 100 µM | –
27 | O=C(c1ccccc1)[C@@H]1C[C@H](Sc2ccccc2)c2cc(Cl)ccc2N1 | – | 70.3 µM | 83.1 µM | 77.5 µM | > 100 µM | 82.6 µM | 84 µM | –
28 | NC1=C(c2nc(-c3ccccc3)cs2)C(c2ccc(Br)cc2)c2c(c3ccccc3oc2=O)O1 (stereo unspecified) | > 150 µg/mL | – | – | – | – | – | – | 63.7 µg/mL
29 | c1ccc2cc3[s+]snc3cc2c1 | – | > 100 µM | > 100 µM | > 100 µM | > 100 µM | – | > 100 µM | –
30 | Nc1c([N+](=O)[O-])cc2c3c(cccc13)CC2 | > 100 µM | – | – | – | – | – | – | –
31 | O=c1oc2cc(N=Cc3ccc4c(c3)OCO4)ccc2c2ccccc12 | > 100 µM | – | – | – | – | – | – | –
32 | O=C(O)CCC(NC(=O)c1ccccc1)C(=O)O (stereo unspecified) | – | > 100 µM | > 100 µM | > 100 µM | > 100 µM | > 100 µM | > 100 µM | –
33 | COC(=O)NN=C1C(C)(C)C(=O)C1(C)C | – | > 100 µM | > 100 µM | > 100 µM | > 100 µM | – | > 100 µM | –
34 | CC(C)(CN1CCCCC1)C(=O)/C=C/c1ccc(Cl)cc1 | – | 7.48 µM | 29.9 µM | 9.75 µM | 22.9 µM | 15.4 µM | 13.3 µM | –
35 | O=C1C2C=CC(C2)C(c2ccc(O)cc2)N1O (stereo unspecified) | – | > 100 µM | – | > 100 µM | > 100 µM | – | – | –

— PubChem BioAssay (NCI)
